Values of other authors, collected in patent publication US12251380B2, “Depot systems comprising cariprazine or salts thereof” (Mapi Pharma Ltd., priority 2022, dated 2025).
Like-named read-outs stand apart in the source and are kept apart here.

Conditions: schizophrenic patients

Row | Compound | elimination half-life (oral Cariprazine) | elimination half-life (active metabolite after oral Cariprazine)
1 | CN(C)C(=O)N[C@H]1CC[C@H](CCN2CCN(c3cccc(Cl)c3Cl)CC2)CC1 [Cariprazine, trans-N-{4-[2-[4-(2,3-dichlorophenyl)piperazine-1-yl]ethyl]cyclohexyl}-N′,N′-dimethylurea] | 2 to 5 days | –
2 | NC(=O)NC1CCC(CCN2CCN(c3cccc(Cl)c3Cl)CC2)CC1 (centres unmarked) [didesmethyl Cariprazine] | – | 2-3 weeks
